Source: patent EP0393530B1, “5,11-dihydro-6H-pyrido[2,3,-b][1,4]benzodiazepin-6-ones and -thiones and their use in the prevention or treatment of AIDS” (BOEHRINGER INGELHEIM PHARMACEUTICALS INC., priority 1989, dated 1990)

Columns and labels:
[1] = target: T1, HIV-1 reverse transcriptase (Human immunodeficiency virus type 1 group M subtype B, UniProt P03367); assay: Reverse Transcriptase (RT) Assay; format: biochemical; settings: RNA-dependent DNA polymerase activity
T1 construct: Reverse transcriptase enzyme from the LAV strain of Human Immunodeficiency Virus (HIV-1); made in house; host or cells: E. coli JM109, clone pBRTprt1+ in vector pIBI21 (lac promoter, IPTG induction)
Description: Utilizing the Reverse Transcriptase (RT) Assay described below, compounds can be tested for their ability to inhibit the RNA-dependent DNA polymerase activity of HIV RT. Certain specific compounds, described in the Examples which appear below, were so tested.
Among the enzymes for which Human Immunodeficiency Virus (HIV-1) encodes is a reverse transcriptase (1), so-named because it transcribes a DNA copy from an RNA template. This activity can be quantitatively measured in a cell-free enzyme assay which has been previously described (2), and is based upon the observation that reverse transcriptase is able to use a synthetic template [poly r(C) primed with oligo d(G)] to transcribe a radio-labelled, acid-precipitable DNA strand utilizing ³H-dGTP as a substrate.
a) Preparation of the enzyme Reverse transcriptase enzyme from the LAV strain of Human Immunodeficiency Virus (HIV-1) (1) was isolated from the bacterial strain JM109 (3) expressing the DNA clone pBRTprt1+ (2) which is under the control of the lac promotor in the expression vector pIBI21 (4). An overnight culture grown in 2XYT medium (37°C, 225 rpm) (5) supplemented with 100 µg/ml ampicillin for positive selection is inoculated at a 1:40 dilution into M9 medium supplemented with 10µg/ml thiamine, 0.5% casamino acids, and 50 µg/ml ampicillin (5). The culture is incubated (37°C, 225 rpm) until it reaches an OD540 of 0.3-0.4. At that time the repressor inhibitor IPTG (isopropyl b-D-thiogalactopyranoside) is added to 0.5mM and incubated for 2 additional hours. Bacteria are pelleted, resuspended in a 50mM Tris, 0.6mM EDTA, 0.375M NaCl buffer and digested by the addition of lysozyme (1mg/ml) for 30 minutes on ice. The cells are lysed by the addition to 0.2% NP-40 and brought to 1M NaCl. After removal of the insoluble debris by centrifugation, the protein is precipitated by the addition of 3 volumes of saturated aqueous ammonium sulfate. The enzyme is pelleted, resuspended in RT buffer (50mM Tris pH 7.5, 1mM EDTA, 5mM DTT, 0.1% NP-40, 0.1M NaCl, and 50% glycerol) and stored at -70°C for further use. b) Composition of 2X concentrated stock reaction mixture
The 2X concentrated stock reaction mixture is aliquoted and stored at -20°C. The mixture is stable and thawed for use in each assay. This enzyme assay has been adapted to a 96 well microtiter plate system, and has been previously described (6). Tris buffer (50 mM, pH 7.4), vehicle (solvent diluted to match the compound dilution), or compounds in vehicle are dispensed into 96-well miciotiter plates (10µl/well; 3 wells/compound). The HIV RT enzyme is thawed, diluted in 50mM Tris pH 7.4 so that fifteen µl of diluted enzyme contain 0.001 Unit (one unit is that amount of enzyme to transform 1 micromole of substrate per minute at 25°C), and 15µl are dispensed per well. Twenty µl of 0.12-0.5M EDTA are added to the first three wells of the microtiter plate. EDTA chelates the Mg⁺⁺ present and prevents reverse transcription. This group serves as background polymerization which is subtracted from all other groups. Twenty-five µl of the 2X reaction mixture are added to all wells and the assay is allowed to incubate at room temperature for 60 minutes. The assay is terminated by precipitating the DNA in each well with 50µl of trichloracetic acid (TCA) (10% w/v) in sodium pyrophosphate (1% w/v). The microtiter plate is incubated for 15 minutes at 4°C and the precipitate is fixed onto #30 glass fiber paper (Schleicher & Schuell) using a Skatron semi-automatic harvester. The filters are then washed with additional TCA (5%) containing sodium pyrophosphate (1%), rinsed with aqueous ethanol (70%), dried, and transferred to scintillation vials (6). Each vial receives 2 mls of scintillation cocktail and is counted in a Beckman beta counter.
The calculation for percent inhibition is as follows: [formula]

[2] = system: HTLV-IIIB strain of HIV-1; assay: Human T-Cell Culture Assay (syncytia formation in c8166 cells); format: cell-based; settings: Human immunodeficiency virus 1, IIIB, 96 h, syncytia four days after virus challenge
Protocol: In order to confirm that compounds which are active in the RT Assay also have the ability to inhibit HIV replication in a living system, compounds according to the invention were also tested in the Human T-Cell Culture Assay described below.
Assay Theory: Formation of syncytia is a feature of in vitro cultures of CD4+ T-cells infected with HIV-1. In this assay, T-cells are treated with a putative replication inhibiting compound and then infected with HIV-1. After incubation the culture is checked for the formation of syncytia. The absence or reduction is the number of syncytia is used as a measure of the test compound's ability to inhibit HIV replication.
Assay Method: The target cells, designated c8166, are a subclone of human lymphoma cells of T-cell origin and are established at an initial density of 5x10⁴ per 100 µl in RPMI 1640 (+ 10% fetal bovine serum) culture medium in 96 well flat bottom plates. A selected amount of test compound, dissolved in DMSO is included. After 24 hours, 50-100 TCID50's (the dose that results in induced effect in 50% of test cultures) of the HTLV-IIIB strain of HIV-1 (2) are innoculated into each culture. Control cultures receive compound or virus only. […] The percent inhibition by the test compound is determined by comparison with control values. […]

[3] = MTT Assay for Cellular Cytotoxicity; format: cell-based; settings: human, H9 cells, five days, EC₅₀ called the highest non-toxic concentration, read-out: Cytotoxity Assay (EC₅₀)
Protocol: In order to roughly assess the cytotoxicity of the compounds provided by the invention, several such compounds were tested in the MTT Cellular Cytotoxicity Assay described below. Compounds having a relatively high EC₅₀ are preferred.
The MTT [3-(4,5-dimethylthiazol-2-yl)-2,5-diphenyl tetrazolium bromide) assay is based on cleavage of tetrazolium bromide by metabolically active cells, resulting in a highly quantitative blue color. This assay has been previously described (1) but his been optimized for the purposes of the testing reported herein.
The H9 cell line (2), an established human lymphoma suspension cell line grown in RPMI 1640 supplemented with 10% fetal bovine serum is used as the target cell line in the assay. Cells (100µl) are plated in microtest plate wells at a concentration of 10⁵ cells per ml in the presence of varying concentrations of inhibitor. The cells are incubated at 37°C in a humidified CO₂ incubator. Five days later, 20µl of MTT (5mg/ml in RPMI 1640, sonicated, 0.2 micron filtered, and stored at 4°C) is added to each well. After 4 hours additional incubation at 37°C, 60µl of Triton-X is added to each well and thoroughly mixed to aid the solubilization of the crystals. Absolute ethanol (5µl) is added to each well and the resulting mixture is incubated for 30 minutes at 60°C and immediately read on a plate reader (Dynatech) at a wavelength of 570nm. […]

inhibition at 10 µg/mL [1]	SMILES	other results
82%	CCN1c2ccccc2C(=O)Nc2cccnc21 [Example 9b, 11-Ethyl-5,11-dihydro-6H-pyrido[2,3-b][1,4]benzodiazepin-6-one]	–
17%	CN1c2ccccc2C(=O)Nc2cccnc21 [Example 9a, 11-Methyl-5,11-dihydro-6H-pyrido[2,3-b][1,4]benzodiazepin-6-one]	–
50%	Cc1ccc2c(c1)C(=O)N(C)c1ccc(C)nc1N2C [Example 2, 2,5,8,11-Tetramethyl-5,11-dihydro-6H-pyrido[2,3-b][1,4]benzodiazepin-6-one]	–
87%	CCN1C(=O)c2cccc(C)c2N(CC)c2ncccc21 [Example 3, 5,11-Diethyl-10-methyl-5,11-dihydro-6H-pyrido[2,3-b][1,4]benzodiazepin-6-one]	–
41%	C=C(Cl)CN1C(=O)c2ccccc2N(CC)c2ncccc21 [Example 1, 5-(2-Chloro-2-propenyl)-11-ethyl-5,11-dihydro-6H-pyrido [2,3-b][1,4]benzodiazepin-6-one]	–
86%	CC(C)(C)OC(=O)CN1c2ccccc2C(=O)Nc2cccnc21 [Example 6]	–
70%	C=CCN1C(=O)c2ccccc2N(CC)c2ncccc21 [Example 9h, 5-(2-Propenyl)-11-ethyl-5,11-dihydro-6H-pyrido[2,3-b][1,4]benzodiazepin-6-one]	–
55%	O=C1Nc2cccnc2Nc2ccccc21 [Example 9c, 5,11-dihydro-6H-pyrido[2,3-b][1,4]benzodiazepin-6-one]	–
84%	Cc1ccc2c(n1)N(C)c1c(C)cccc1C(=O)N2C [Example 5, 2,5,10,11-Tetramethyl-5,11-dihydro-6H-pyrido[2,3-b][1,4]benzodiazepin-6-one]	–
91%	CCN1c2ccc(C)cc2C(=O)N(C)c2cccnc21 [Example 4, 5,8-Dimethy-11-ethyl-5,11-dihydro-6H-pyrido[2,3-b][1,4]benzodiazepin-6-one]	inhibition at 19 µM ([2]; @19µM): 100%; CC50 at 120 h [3]: 40 µM
87%	CCN1C(=O)c2ccccc2N(CC)c2ncccc21 [Example 9g, 5,11-Diethyl-5,11-dihydro-6H-pyrido[2,3-b][1,4]benzodiazepin-6-one]	inhibition at 75 µM ([2]; @75µM): 100%; CC50 at 120 h [3]: 100 µM
94%	CCN1c2ccccc2C(=O)N(C)c2cccnc21 [Example 9f, 5-Methyl-11-ethyl-5,11-dihydro-6H-pyrido[2,3-b][1,4]benzodiazepin-6-one]	–
38%	CCCN1C(=O)c2ccccc2N(C)c2ncccc21 [Example 9e, 5-n-Propyl-11-methyl-5,11-dihydro-6H-pyrido[2,3-b][1,4]benzodiazepin-6-one]	–
24%	CCN1C(=O)c2ccccc2N(C)c2ncccc21 [Example 9d, 5-Ethyl-11-methyl-5,11-dihydro-6H-pyrido[2,3-b][1,4]benzodiazepin-6-one]	–
43%	CCN1C(=O)c2ccccc2N(C)c2nc(Cl)ccc21 [Example 7, 2-Chloro-5-ethyl-11-methyl-5,11-dihydro-6H-pyrido[2,3-b] [1,4]benzodiazepin-6-one]	–
40%	Cc1ccc2c(c1)C(=O)N(C)c1cccnc1N2C [Example 8, 5,8,11-Trimethyl-5,11-dihydro-6H-pyrido[2,3-b][1,4]benzodiazepin-6-one]	–
